1 molecule from US10071100B2, “Therapeutic nanoparticles comprising a therapeutic agent and methods of making and using the same” (PFIZER INC., priority 2014, dated 2018) can be followed below.

One data set is described as follows: physchem. It is filed as physicochemical. The source says: It is described in U.S. Pat. No. 8,039,469, the contents of which are incorporated by reference. […] As indicated above, it is a base. It is a protonatable nitrogen-containing therapeutic agent. As used herein, a “protonatable nitrogen-containing therapeutic agent” includes any pharmaceutically active agent that contains at least one nitrogen-containing functional group that is capable of being protonated. In other words, the therapeutic agent has a nitrogen atom thereon which has a lone pair of electrons that could potentially accept a proton. The pKa refers to the acid dissociation constant on a logarithmic scale of the corresponding protonated form of the therapeutic agent. In other words, if a proton (H+) were present at the nitrogen atoms where there is an arrow indicated, the therapeutic agent would have the pKa indicated below: […]

Data set [1] in a line: pharmacokinetics of nanoparticles in Wistar Han rats. The conditions noted are these: rat; male Wistar Han rats, intravenous 1 mg/kg bolus, plasma. The class given is in vivo. The method, then: The protocol was as follows: Male Wistar Han rats (approximately six weeks in age; n=4/group) with indwelling jugular vein cannulae were dosed intravenously with a 1 mg/kg bolus of Formulation A, B, and C nanoparticles or Formulation A, B, and C nanoparticles diluted in 0.9% saline. At various times after dosing, serial blood collections were made from the jugular vein cannulae and plasma concentrations of therapeutic agent were quantitated by LC-MS/MS.

Data set [2] in a line: pKa (acid dissociation constant). It is filed as physicochemical. Particulars: protonated form of the therapeutic agent; read-out: first pKa. The source says:
It is described in U.S. Pat. No. 8,039,469, the contents of which are incorporated by reference. […] As indicated above, it is a base. It is a protonatable nitrogen-containing therapeutic agent. As used herein, a “protonatable nitrogen-containing therapeutic agent” includes any pharmaceutically active agent that contains at least one nitrogen-containing functional group that is capable of being protonated. In other words, the therapeutic agent has a nitrogen atom thereon which has a lone pair of electrons that could potentially accept a proton. The pKa refers to the acid dissociation constant on a logarithmic scale of the corresponding protonated form of the therapeutic agent. In other words, if a proton (H+) were present at the nitrogen atoms where there is an arrow indicated, the therapeutic agent would have the pKa indicated below:
The pKa information for the most basic nitrogen (bottom) and a less basic but still protonatable nitrogen (upper) are shown above. ACD is a calculated number using standard techniques known in the art, such as described in Liao C Z, Nicklaus M C. Comparison of nine programs predicting pK(a) values of pharmaceutical substances. J. Chem. Inform. Model. 49(12):2801-2812, 2009. It has to be understood that the pKa of the therapeutic agent refers to the protonated form thereof. […]

Structures are written as SMILES.

One may read the logD as lipophilicity at a set pH, counting ionised and neutral species. Read a low logD as a more hydrophilic compound. Usually AUC stands for the area under the concentration-time curve, a measure of exposure. The half-life is how long it takes for the measured level to halve. A higher half-life goes with slow decline. The pKa is the pH at which an ionisable group is half protonated. As to `CN(C)C1CCN(C(=O)c2ccc(NC(=O)Nc3ccc(-c4nc(N5CCOCC5)nc(N5CCOCC5)n4)cc3)cc2)CC1` [therapeutic agent, 1-(4-{[4-(dimethylamino)piperidin-1-yl]carbonyl}phenyl)-3-[4-(4,6-dimorpholin-4-yl-1,3,5-triazin-2-yl)phenyl]urea], the logD in “physchem” (pH 6.5) was determined as 0.212. In the data set “physchem” (pH 7.4), the log distribution coefficient (logD) turned out to be 1.08. In data set [1], the AUC is 920 ng·h/mL and the half-life was 13.2 h. Besides, in data set [2], the pKa was approximately 6.7.
